We go through 20 compounds from patent US4937242A, “1,4-dihydropyridine derivatives and pharmaceutical composition thereof” (Kyoto Pharmaceutical Industries, Ltd., priority 1987, dated 1990).

Series [1] has as its system spontaneously hypertensive rats. The series is described as follows: Hypotensive activity in male spontaneously hypertensive rats (oral). The series is classed as in vivo, rat. The settings on record: systolic pressure at tail vein, oral 10 mg/kg.
Method: Hypotensive activity [Method] Male spontaneously hypertensive rats at the 12th to 16th week in age and presenting a systolic pressure of around 200 mmHg were used as experimental animals, and 3 to 8 animals were assigned to each group. The subject compound (indicated by the example number), in an aqueous solution or 5% gum arabic suspension, was orally administered in a dose of 10 mg/kg. At the 4th and 8th hours following the administration, the systolic pressure at tail vein of each rat was noninvasively measured by means of a sphygmomanometer (USM-105, Ueda Seisakusho, Japan). A group of rats administered the solvent alone was used as a control group.
Gum arabic or water was administered to rats of the control group.
Series [2] in a line: Water solubility test. The settings on record: powdered, 20°±5° C., within 30 minutes, read-out: Amount (ml) of water required to dissolve 1 g of the subject compounds (converted). The class given is physicochemical. How it is done: The subject compounds (indicated by the example number), after being powdered, were placed in water and vigorously shaken at 20°±5° C. for 30 seconds a 5-minute intervals, and within 30 minutes, the amount of water required to dissolve 1 g of the compound (I) of the present invention therein was measured.

Converted amounts (≈) assume the structure as drawn. Where a name gives a salt, the structure may show the parent alone.

Turning to `C=CCN1CCN(CC(C)(C)COC(=O)C2=C(C)NC(C)=C(C(=O)OC)C2c2cccc([N+](=O)[O-])c2)CC1.Cl.Cl` (centres unmarked) [Example 2, 3-(4-allyl-1-piperazinyl)-2,2-dimethylpropyl methyl 2,6-dimethyl-4-(m-nitrophenyl)-1,4-dihydropyridine-3,5-dicarboxylate dihydrochloride], in series [1], the “Change in blood pressure, 4 hours after administration” value (shortened to “Change in blood pressure, 4 hours”) was -81 mmHg and the “Change in blood pressure, 8 hours after administration” value (“Change in blood pressure, 8 hours” for short) was -104 mmHg. Also, the solubility at 0.5 h in series [2] was 500 mg/mL.

Turning to `COC(=O)C1=C(C)NC(C)=C(C(=O)OCC(C)(C)CN2CCN(C(=O)Cc3ccccc3)CC2)C1c1cccc([N+](=O)[O-])c1` (centres unmarked) [Example 5], in series [1], the “Change in blood pressure, 4 hours” value is on record as -90 mmHg and the “Change in blood pressure, 8 hours” value is -87 mmHg.

As to `COC(=O)C1=C(C)NC(C)=C(C(=O)OCC(C)(C)CN2CCN(C(=O)c3ccccc3)CC2)C1c1cccc([N+](=O)[O-])c1.Cl` (centres unmarked) [Example 6, 2,2-Dimethyl-3-(4-benzoyl-1-piperazinyl)propyl Methyl 1,4-Dihydro-2,6-dimethyl-4-(3-nitrophenyl)-3,5-pyridinedicarboxylate Hydrochloride], in series [1], the “Change in blood pressure, 4 hours” value is reported as -64 mmHg and the “Change in blood pressure, 8 hours” value is -88 mmHg.

`COC(=O)C1=C(C)NC(C)=C(C(=O)OCC(C)(C)CN2CCN(C(=O)C=Cc3ccccc3)CC2)C1c1cccc([N+](=O)[O-])c1` (centres unmarked) [Example 7]: in series [1], the “Change in blood pressure, 4 hours” value is reported as -76 mmHg and the “Change in blood pressure, 8 hours” value is -84 mmHg.

For the compound `COC(=O)C1=C(C)NC(C)=C(C(=O)OCC(C)(C)CN2CCN(C(C)=O)CC2)C1c1cccc([N+](=O)[O-])c1` (centres unmarked) [Example 8], in series [1], the “Change in blood pressure, 4 hours” value is reported as -56 mmHg and the “Change in blood pressure, 8 hours” value is reported as -90 mmHg.

Turning to `C#CCN1CCN(CC(C)(C)COC(=O)C2=C(C)NC(C)=C(C(=O)OC)C2c2cccc([N+](=O)[O-])c2)CC1` (centres unmarked) [Example 12], in series [1], the “Change in blood pressure, 4 hours” value is reported as -70 mmHg and the “Change in blood pressure, 8 hours” value is recorded as -102 mmHg. For the same compound, the solubility at 0.5 h in series [2] was 500 mg/mL (≈ 953 mM).

On to `COC(=O)C1=C(C)NC(C)=C(C(=O)OCC(C)(C)CN2CCN(CC=Cc3ccccc3)CC2)C1c1cccc([N+](=O)[O-])c1.Cl.Cl` (centres unmarked) [Example 13, 2,2-Dimethyl-3-(4-cinnamyl-1-piperazinyl)propyl Methyl 1,4-Dihydro-2,6-dimethyl-4-(3-nitrophenyl)-3,5-pyridinedicarboxylate Dihydrochloride], for which, in series [1], the “Change in blood pressure, 4 hours” value is reported as -69 mmHg and the “Change in blood pressure, 8 hours” value was -77 mmHg.

As for `COC(=O)C1=C(C)NC(C)=C(C(=O)OCC(C)(C)CN2CCN(CCC#N)CC2)C1c1cccc([N+](=O)[O-])c1` (centres unmarked) [Example 14, 2,2-Dimethyl-3-[4-(2-cyanoethyl)-1-piperazinyl]propyl Methyl 1,4-Dihydro-2,6-dimethyl-4-(3-nitrophenyl)-3,5-pyridinedicarboxylateDihydrochloride], in series [1], the “Change in blood pressure, 4 hours” value is reported as -43 mmHg and the “Change in blood pressure, 8 hours” value was -88 mmHg. Further, in series [2], the solubility at 0.5 h was 500 mg/mL.

`COC(=O)C1=C(C)NC(C)=C(C(=O)OCC(C)(C)CN2CCN(CCO)CC2)C1c1cccc([N+](=O)[O-])c1` (centres unmarked) [Example 15, 2,2-Dimethyl-3-[4-(2-hydroxyethyl)-1-piperazinyl]propyl Methyl 1,4-Dihydro-2,6-dimethyl-4-(3-nitrophenyl)-3,5-pyridinedicarboxylateDihydrochloride]: in series [1], the “Change in blood pressure, 4 hours” value was -52 mmHg and the “Change in blood pressure, 8 hours” value is listed as -47 mmHg. Moreover, the solubility at 0.5 h in series [2] was 500 mg/mL.

In the case of `COC(=O)C1=C(C)NC(C)=C(C(=O)OCC(C)(C)CN2CCN(CCN3CCCCC3)CC2)C1c1cccc([N+](=O)[O-])c1` (centres unmarked) [Example 16], in series [1], the “Change in blood pressure, 4 hours” value is recorded as -34 mmHg and the “Change in blood pressure, 8 hours” value was -52 mmHg. In addition, in series [2], the solubility at 0.5 h is 500 mg/mL (≈ 836 mM).

In the case of `C=C(C)CN1CCN(CC(C)(C)COC(=O)C2=C(C)NC(C)=C(C(=O)OC)C2c2cccc([N+](=O)[O-])c2)CC1` (centres unmarked) [Example 17], in series [1], the “Change in blood pressure, 4 hours” value is -112 mmHg and the “Change in blood pressure, 8 hours” value is -107 mmHg. Moreover, the solubility at 0.5 h in series [2] is 312 mg/mL (≈ 578 mM).

For the compound `COC(=O)C1=C(C)NC(C)=C(C(=O)OCC(C)(C)CN2CCN(C(C)C(C)=O)CC2)C1c1cccc([N+](=O)[O-])c1` (centres unmarked) [Example 19], in series [1], the “Change in blood pressure, 4 hours” value is reported as -86 mmHg and the “Change in blood pressure, 8 hours” value is on record as -85 mmHg. Besides, in series [2], the solubility at 0.5 h was 500 mg/mL (≈ 898 mM).

With `CC=CCN1CCN(CC(C)(C)COC(=O)C2=C(C)NC(C)=C(C(=O)OC)C2c2cccc([N+](=O)[O-])c2)CC1.Cl.Cl` (centres unmarked) [Example 20, 2,2-Dimethyl-3-[4-(2-butenyl)-1-piperazinyl]propyl Methyl 1,4-Dihydro-2,6-dimethyl-4-(3-nitrophenyl)-3,5-pyridinedicarboxylate Dihydrochloride], in series [1], the “Change in blood pressure, 4 hours” value is -84 mmHg and the “Change in blood pressure, 8 hours” value is on record as -82 mmHg. Further, the solubility at 0.5 h in series [2] is 625 mg/mL.

Consider `C#CCCCN1CCN(CC(C)(C)COC(=O)C2=C(C)NC(C)=C(C(=O)OC)C2c2cccc([N+](=O)[O-])c2)CC1.Cl.Cl` (centres unmarked) [Example 21, 2,2-Dimethyl-3-[4-(4-pentynyl)-1-piperazinyl]propyl Methyl 1,4-Dihydro-2,6-dimethyl-4-(3-nitrophenyl)-3,5-pyridinedicarboxylate Dihydrochloride], for which, in series [1], the “Change in blood pressure, 4 hours” value was -112 mmHg and the “Change in blood pressure, 8 hours” value was -98 mmHg. Also, the solubility at 0.5 h in series [2] is 500 mg/mL.

Turning to `COC(=O)C1=C(C)NC(C)=C(C(=O)OCC(C)(C)CN2CCN(CC#N)CC2)C1c1cccc([N+](=O)[O-])c1.Cl.Cl` (centres unmarked) [Example 23, 3-(4-Cyanomethyl-1-piperazinyl)-2,2-dimethylpropyl methyl 2,6-dimethyl-4-(m-nitrophenyl)-1,4-dihydropyridine-3,5-dicarboxylate dihydrochloride], in series [1], the “Change in blood pressure, 4 hours” value is -104 mmHg and the “Change in blood pressure, 8 hours” value was -82 mmHg. Moreover, the solubility at 0.5 h in series [2] is 500 mg/mL.

On to `COC(=O)C1=C(C)NC(C)=C(C(=O)OCC(C)(C)CN2CCN(CCO[N+](=O)[O-])CC2)C1c1cccc([N+](=O)[O-])c1` (centres unmarked) [Example 24], for which, in series [1], the “Change in blood pressure, 4 hours” value is given as -91 mmHg and the “Change in blood pressure, 8 hours” value was -69 mmHg. Moreover, the solubility at 0.5 h in series [2] is 500 mg/mL (≈ 869 mM).

On to `CCOC(=O)CN1CCN(CC(C)(C)COC(=O)C2=C(C)NC(C)=C(C(=O)OC)C2c2cccc([N+](=O)[O-])c2)CC1` (centres unmarked) [Example 25], for which, in series [2], the solubility at 0.5 h was 500 mg/mL (≈ 873 mM).

As to `COC(=O)C1=C(C)NC(C)=C(C(=O)OCC(C)(C)CN2CCN(CC(=O)N3CCCC3)CC2)C1c1cccc([N+](=O)[O-])c1` (centres unmarked) [Example 26], in series [1], the “Change in blood pressure, 4 hours” value is -53 mmHg and the “Change in blood pressure, 8 hours” value is given as -32 mmHg. For the same compound, the solubility at 0.5 h in series [2] is 500 mg/mL (≈ 837 mM).

With `CNC(=O)CN1CCN(CC(C)(C)COC(=O)C2=C(C)NC(C)=C(C(=O)OC)C2c2cccc([N+](=O)[O-])c2)CC1` (centres unmarked) [Example 27], in series [1], the “Change in blood pressure, 4 hours” value was -83 mmHg and the “Change in blood pressure, 8 hours” value is recorded as -60 mmHg. Moreover, the solubility at 0.5 h in series [2] was 500 mg/mL (≈ 897 mM).

Take `COC(=O)C1=C(C)NC(C)=C(C(=O)OCCN(C)Cc2ccccc2)C1c1cccc([N+](=O)[O-])c1` (centres unmarked) [Nicardipine, nicardipine, reference compound]: in series [1], the “Change in blood pressure, 4 hours” value is -29 mmHg and the “Change in blood pressure, 8 hours” value is given as -22 mmHg. The solubility at 0.5 h in series [2] is 6.25 mg/mL (≈ 13 mM).
